Reference: ChEMBL document CHEMBL5506049, “Discovery of Novel Small-Molecule-Based Potential PD-L1/EGFR Dual Inhibitors with High Druggability for Glioblastoma Immunotherapy” (J Med Chem, 2024)

Experiments:
U-87 MG = test: cells; details: Homo sapiens, 72 h
Description: Antiproliferative activity against human U-87 MG cells incubated for 72 hrs by MTT assay

U-251 = test: cells; details: Homo sapiens, U-251, 72 h
Description: Antiproliferative activity against human U-251 cells incubated for 72 hrs by MTT assay

cells [1] = details: GL261, 72 h
Description: Antiproliferative activity against human GL261 cells incubated for 72 hrs by MTT assay

cells [2] = details: Homo sapiens, U87MG Human EGFR vIII, 72 h
Description: Antiproliferative activity against human U87vIII cells expressing EGFRvIII incubated for 72 hrs by MTT assay

[3] = biological target: Programmed cell death protein 1/Programmed cell death 1 ligand 1 (Homo sapiens, UniProt Q9NZQ7); test: Inhibition of PD-1/PD-L1 (unknown origin) interaction assessed as inhibition rate incubated for 1 hr by HTRF assay relative to control; type: protein-complex assay
[4] = In vivo antitumor activity against […] GL261 cells xenografted in C57BL/6 mouse assessed as decrease in tumor weight at 100 mg/kg, IG treated for 21 days relative to control; type: functional; parameters: scale not given: the % may be the effect or the level left; details: time 21 day
[5] = In vivo antitumor activity against […] GL261 cells xenografted in C57BL/6 mouse assessed as decrease in tumor volume at 100 mg/kg, IG treated for 21 days relative to control; type: functional; parameters: scale not given: the % may be the effect or the level left; details: time 21 day
Glioblastoma cell line [6] = test: Antitumor immunity against glioblastoma bearing C57BL/6 mouse model assessed as tumor infiltrating lymphocytes by measuring increase in CD3+CD4+T cells at 100 mg/kg, IG (reference value: 0.91%); type: functional
Glioblastoma cell line [7] = test: Antitumor immunity against glioblastoma bearing C57BL/6 mouse model assessed as tumor infiltrating lymphocytes by measuring increase in CD3+CD8+T cells at 100 mg/kg, IG (reference value: 3.44%); type: functional
[8] = In vivo antitumor activity against […] GL261 cells xenografted in C57BL/6 mouse assessed as decrease in EGFR phosphorylation in tumor tissue at 100 mg/kg, IG treated for 21 days relative to control; type: functional; parameters: scale not given: the % may be the effect or the level left; details: time 21 day
[9] = In vivo antitumor activity against […] GL261 cells xenografted in C57BL/6 mouse assessed as decrease in PD-L1 expression in tumor tissue at 100 mg/kg, IG treated for 21 days relative to control; type: functional; parameters: scale not given: the % may be the effect or the level left; details: time 21 day

Sequence of Programmed cell death protein 1/Programmed cell death 1 ligand 1 (Q15116 whole entry): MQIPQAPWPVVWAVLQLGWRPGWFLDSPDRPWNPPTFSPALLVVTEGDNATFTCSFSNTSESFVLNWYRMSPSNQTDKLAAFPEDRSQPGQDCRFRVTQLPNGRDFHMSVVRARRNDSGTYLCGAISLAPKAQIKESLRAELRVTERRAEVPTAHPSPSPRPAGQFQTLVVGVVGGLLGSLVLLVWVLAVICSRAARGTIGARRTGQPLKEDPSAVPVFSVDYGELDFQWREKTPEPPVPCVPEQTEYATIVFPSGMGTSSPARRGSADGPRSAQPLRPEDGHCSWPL
Sequence of Programmed cell death protein 1/Programmed cell death 1 ligand 1 (Q9NZQ7 whole entry): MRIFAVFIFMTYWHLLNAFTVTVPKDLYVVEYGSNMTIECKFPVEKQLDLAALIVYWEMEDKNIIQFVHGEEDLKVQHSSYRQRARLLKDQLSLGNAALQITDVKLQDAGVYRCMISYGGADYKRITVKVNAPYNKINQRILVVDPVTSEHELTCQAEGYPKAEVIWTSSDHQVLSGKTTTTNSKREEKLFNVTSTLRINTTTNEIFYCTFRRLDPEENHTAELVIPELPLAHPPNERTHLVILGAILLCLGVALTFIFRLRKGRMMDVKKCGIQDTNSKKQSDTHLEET

IC50 (U-87 MG) [µM]	IC50 (U-251) [µM]	IC50 (cells [1]) [µM]	IC50 (cells [2]) [µM]	SMILES	IC50 [3] [µM]	Activity [4] [%]	Activity [5] [%]	Activity (Glioblastoma cell line [6]) [%]	Activity (Glioblastoma cell line [7]) [%]	Activity [8] [%]	Activity [9] [%]
> 20	> 20	> 20	> 20	COc1cc2ncnc(Nc3ccc(F)c(Cl)c3)c2cc1OCCCCCCCCNC(=O)CN(C)Cc1c(OC)cc(OCc2cccc(-c3ccccc3)c2C)cc1OC	–	–	–	–	–	–	–
> 20	> 20	> 20	> 20	Cc1c(COc2cc(OCc3cccc(C#N)c3)c(CNC(C)(C)C(=O)O)cc2Cl)cccc1-c1ccccc1	0.0562	77.2	71.1	24.7	19.7	–	–
1.03	2.85	2.72	2.61	COc1cc2ncnc(Nc3ccc(F)c(Cl)c3)c2cc1OCCCCNCc1ccc(-c2cccc(-c3ccccc3)c2C)nc1OC	–	–	–	–	–	–	–
3.72	2.98	5.72	8.03	COc1nc(OCc2cccc(-c3ccccc3)c2C)ccc1CNCCNC(C)=O	–	–	–	–	–	–	–
> 20	> 20	> 20	> 20	COc1cc2ncnc(Nc3ccc(F)c(Cl)c3)c2cc1OCCCCCNC(=O)C1CCCCN1Cc1ccc(-c2cccc(-c3ccccc3)c2C)nc1OC (configuration not stated)	–	–	–	–	–	–	–
2.6	1.47	1.97	0.8	COc1cc(OCc2cccc(-c3ccccc3)c2C)ccc1CNCCCCOc1cc2c(Nc3ccc(F)c(Cl)c3)ncnc2cc1OC	–	–	–	–	–	–	–
> 20	> 20	> 20	> 20	COc1cc2ncnc(Nc3ccc(F)c(Cl)c3)c2cc1OCCCCNC(=O)C1CCCCN1Cc1ccc(-c2cccc(-c3ccccc3)c2C)nc1OC (configuration not stated)	–	–	–	–	–	–	–
0.84	1.29	1.24	0.29	COc1cc(OCc2cccc(-c3ccccc3)c2C)ccc1CNCCCCOc1cc2c(Nc3cccc(Cl)c3F)ncnc2cc1OC	–	–	–	–	–	–	–
> 20	> 20	> 20	> 20	COc1cc2ncnc(Nc3ccc(F)c(Cl)c3)c2cc1OCCCCCCNC(=O)C1CCCCN1Cc1c(OC)cc(OCc2cccc(-c3ccccc3)c2C)cc1OC (configuration not stated)	–	–	–	–	–	–	–
> 20	> 20	> 20	> 20	COc1cc2ncnc(Nc3ccc(F)c(Cl)c3)c2cc1OCCCCCNC(=O)C1CCCCN1Cc1c(OC)cc(OCc2cccc(-c3ccccc3)c2C)cc1OC (configuration not stated)	–	–	–	–	–	–	–
5.76	2.64	6.86	1.14	COc1cc2ncnc(Nc3ccc(F)c(Cl)c3)c2cc1OCCNCc1ccc(-c2cccc(-c3ccccc3)c2C)nc1OC	–	–	–	–	–	–	–
4.01	3.49	5.46	0.96	COc1cc(OCc2cccc(-c3ccccc3)c2C)ccc1CNCCCOc1cc2c(Nc3ccc(F)c(Cl)c3)ncnc2cc1OC	–	–	–	–	–	–	–
0.86	1.33	1.79	0.36	COc1cc2ncnc(Nc3ccc(F)c(Cl)c3)c2cc1OCCCCNCc1c(OC)cc(OCc2cccc(-c3ccccc3)c2C)cc1OC	–	–	–	–	–	–	–
> 20	> 20	> 20	> 20	COc1cc2ncnc(Nc3ccc(F)c(Cl)c3)c2cc1OCCCCCCNC(=O)CCN(C)Cc1ccc(-c2cccc(-c3ccccc3)c2C)nc1OC	–	–	–	–	–	–	–
3.38	1.35	2.16	0.53	COc1cc2ncnc(Nc3ccc(F)c(Cl)c3)c2cc1OCCCCCNCc1ccc(-c2cccc(-c3ccccc3)c2C)nc1OC	–	–	–	–	–	–	–
1.35	1.04	2.24	0.44	COc1cc2ncnc(Nc3ccc(F)c(Cl)c3)c2cc1OCCCCCNCc1c(OC)cc(OCc2cccc(-c3ccccc3)c2C)cc1OC	–	–	–	–	–	–	–
2.85	1.55	2.76	0.54	COc1cc2ncnc(Nc3ccc(F)c(Cl)c3)c2cc1OCCCCCCNCc1c(OC)cc(OCc2cccc(-c3ccccc3)c2C)cc1OC	–	–	–	–	–	–	–
5.16	> 20	> 20	3.12	COc1cc2ncnc(Nc3ccc(F)c(Cl)c3)c2cc1OCCCCCNC(=O)CN(C)Cc1c(OC)cc(OCc2cccc(-c3ccccc3)c2C)cc1OC	–	–	–	–	–	–	–
1.08	5.12	2.63	0.82	COc1cc2ncnc(Nc3ccc(F)c(Cl)c3)c2cc1OCCCNCc1ccc(-c2cccc(-c3ccccc3)c2C)nc1OC	–	–	–	–	–	–	–
0.89	1.38	2.25	0.73	COc1cc2ncnc(Nc3ccc(F)c(Cl)c3)c2cc1OCCCCNCc1ccc(OCc2cccc(-c3ccccc3)c2C)c(C)c1	–	–	–	–	–	–	–
–	–	–	–	COc1cc2ncnc(Nc3ccc(F)c(Cl)c3)c2cc1OCCCN1CCOCC1 [GEFITINIB]	–	77.2	71.2	–	–	~30	~15
> 20	> 20	> 20	> 20	COc1cc2ncnc(Nc3ccc(F)c(Cl)c3)c2cc1OCCCCCCNC(=O)C1CCCCN1Cc1ccc(OCc2cccc(-c3ccccc3)c2C)c(C)c1 (configuration not stated)	–	–	–	–	–	–	–
1.08	1.87	3.25	0.73	COc1cc2ncnc(Nc3ccc(F)c(Cl)c3)c2cc1OCCCCCCNCc1ccc(-c2cccc(-c3ccccc3)c2C)nc1OC	–	–	–	–	–	–	–
1.06	1.47	2.39	1.39	COc1cc2ncnc(Nc3ccc(F)c(Cl)c3)c2cc1OCCCNCc1c(OC)cc(OCc2cccc(-c3ccccc3)c2C)cc1OC	–	–	–	–	–	–	–
3.33	1.96	3.22	2.84	COc1cc2ncnc(Nc3ccc(F)c(Cl)c3)c2cc1OCCNCc1c(OC)cc(OCc2cccc(-c3ccccc3)c2C)cc1OC	–	–	–	–	–	–	–
1.15	3.53	3.3	2.01	COc1cc2ncnc(Nc3ccc(F)c(Cl)c3)c2cc1OCCCCCCCCNCc1ccc(-c2cccc(-c3ccccc3)c2C)nc1OC	–	–	–	–	–	–	–

SMILES	IC50 (U-87 MG) [µM]	IC50 (U-251) [µM]	IC50 (cells [1]) [µM]	IC50 (cells [2]) [µM]	IC50 [3] [µM]	Activity [4] [%]	Activity [5] [%]	Activity (Glioblastoma cell line [6]) [%]	Activity (Glioblastoma cell line [7]) [%]	Activity [8] [%]	Activity [9] [%]
COc1cc2ncnc(Nc3ccc(F)c(Cl)c3)c2cc1OC(=O)N1CCN(Cc2ccc(-c3cccc(-c4ccccc4)c3C)nc2OC)CC1	> 20	> 20	> 20	> 20	–	–	–	–	–	–	–
COc1cc2ncnc(Nc3ccc(F)c(Cl)c3)c2cc1OC(=O)N1CCN(Cc2c(OC)cc(OCc3cccc(-c4ccccc4)c3C)cc2OC)CC1	> 20	> 20	> 20	> 20	–	–	–	–	–	–	–
